Calls of active or inactive are those of the source. The rule behind the calls is not given here.

This is an account of results in ChEMBL document CHEMBL3044953, “Effect of nitrogen insertion on the antitussive properties of menthol and camphor” (Med Chem Res, 2012).

For series [1], the species on record is Cavia porcellus. The experiment in a line: Antitussive activity against crtric acid-induced cough in Cavia porcellus (guinea pig) model assessed as cough latency at 125 to 250 ug/ml for 5 min through aerosol prior to exposure of aerosolized citric acid for 10 min. In kind it is functional, organism-based.
The species named for series [2] is Cavia porcellus. The experiment in a line: Antitussive activity against crtric acid-induced cough in Cavia porcellus (guinea pig) model assessed as reduction in cough response at 250 to 500 ug/ml for 5 min through aerosol prior to exposure of aerosolized citric acid for 10 min. Format: functional, organism-based.
For series [3], the species on record is Cavia porcellus. Put plainly: Antitussive activity against crtric acid-induced cough in Cavia porcellus (guinea pig) model assessed as cough response at 125 ug/ml for 5 min through aerosol prior to exposure of aerosolized citric acid for 10 min. In kind it is functional, organism-based.
For series [4], the species on record is Cavia porcellus. Put plainly: Antitussive activity against crtric acid-induced cough in Cavia porcellus (guinea pig) model assessed as increase in cough latency at 500 ug/ml for 5 min through aerosol prior to exposure of aerosolized citric acid for 10 min. Format: functional, organism-based.
The species named for series [5] is Cavia porcellus. Put plainly: Antitussive activity against crtric acid-induced cough in Cavia porcellus (guinea pig) model assessed as increase in cough latency at 30 to 60 ug/ml for 5 min through aerosol prior to exposure of aerosolized citric acid for 10 min. Format: functional, organism-based.
Series [6] is filed under the species Cavia porcellus. The experiment in a line: Antitussive activity against crtric acid-induced cough in Cavia porcellus (guinea pig) model assessed as reduction in cough response at 15 to 60 ug/ml for 5 min through aerosol prior to exposure of aerosolized citric acid for 10 min. Format: functional, organism-based.
Series [7] is filed under the species Cavia porcellus. Put plainly: Antitussive activity against crtric acid-induced cough in Cavia porcellus (guinea pig) model assessed as increase in cough latency at 250 to 500 ug/ml for 5 min through aerosol prior to exposure of aerosolized citric acid for 10 min. Format: functional, organism-based.
The species named for series [8] is Cavia porcellus. Put plainly: Toxicity in Cavia porcellus (guinea pig) assessed as adverse behavior at 125 to 500 ug/ml through aerosol. The conditions noted are these: in vivo, inhaled_or_intranasal. Format: organism-based.
The species entered for series [9] is Cavia porcellus. The experiment in a line: Antitussive activity against crtric acid-induced cough in Cavia porcellus (guinea pig) model assessed as reduction in cough response at 125 to 500 ug/ml for 5 min through aerosol prior to exposure of aerosolized citric acid for 10 min. Format: functional, organism-based.
Series [10] is filed under the species Cavia porcellus. The experiment in a line: Toxicity in Cavia porcellus (guinea pig) assessed as irritation at 125 to 500 ug/ml through aerosol. In kind it is organism-based. As to conditions: in vivo, inhaled_or_intranasal.
Series [11] is filed under the species Cavia porcellus. The experiment in a line: Antitussive activity against crtric acid-induced cough in Cavia porcellus (guinea pig) model assessed as cough latency at 125 ug/ml for 5 min through aerosol prior to exposure of aerosolized citric acid for 10 min. Format: functional, organism-based.
The species entered for series [12] is Cavia porcellus. Put plainly: Toxicity in Cavia porcellus (guinea pig) assessed as irritation at 15 to 60 ug/ml through aerosol. Format: organism-based. The conditions noted are these: in vivo, inhaled_or_intranasal.
Series [13] is filed under the species Cavia porcellus. The experiment in a line: Antitussive activity against crtric acid-induced cough in Cavia porcellus (guinea pig) model assessed as increase in cough latency at 15 to 60 ug/ml for 5 min through aerosol prior to exposure of aerosolized citric acid for 10 min. Format: functional, organism-based.
The species named for series [14] is Cavia porcellus. The experiment in a line: Toxicity in Cavia porcellus (guinea pig) assessed as adverse behavior at 15 to 60 ug/ml through aerosol. Format: organism-based. The conditions noted are these: in vivo, inhaled_or_intranasal.

Consider `CC12CCC(CC1=O)C2(C)C` (stereo not given), for which, in the series filed under Cavia porcellus [1], the outcome was inactive. Besides, in the series listed under Cavia porcellus [2], the inhibition result is “Active”. The inhibition result in the series listed under Cavia porcellus [3] is “inactive”. In addition, the result in the series listed under Cavia porcellus [4] was Active.

With `CC1CCC(C(C)C)C(O)C1` (stereo not given), the outcome in the series listed under Cavia porcellus [5] was Active. In addition, the inhibition entry in the series filed under Cavia porcellus [6] was “Active”.

Consider `CC1(C)C2CC[C@]1(C)C(=O)NC2` [Alpha-camphidone], for which the outcome in the series listed under Cavia porcellus [7] was Active. Besides, the Activity result in the series filed under Cavia porcellus [8] and in the series filed under Cavia porcellus [10] was “Non-toxic” throughout. Moreover, the inhibition entry in the series filed under Cavia porcellus [9] is “Active”. The outcome in the series listed under Cavia porcellus [11] was inactive.

With `CC(C)[C@@H]1CC[C@@H](C)CC(=O)N1` [Menthol lactam], the Activity result in the series listed under Cavia porcellus [12] and in the series listed under Cavia porcellus [14] was “Non-toxic” in each case. The result in the series listed under Cavia porcellus [13] was Active. The inhibition result in the series listed under Cavia porcellus [6] was “Active”.
